Measurements as given in ChEMBL document CHEMBL1275418, “IMP-15-producing Pseudomonas aeruginosa strain isolated in a U.S. medical center: a recent arrival from Mexico” (2008).

Assays:
Type in all cases: functional
[1] = tested on: Pseudomonas aeruginosa; assay: Antibacterial activity against Pseudomonas aeruginosa 1750J expressing beta-lactamase IMP-15 by Etest in presence of EDTA
[2] = tested on: Pseudomonas aeruginosa; assay: Antibacterial activity against Pseudomonas aeruginosa isolates by Etest
[3] = tested on: Pseudomonas aeruginosa; assay: Antibacterial activity against Pseudomonas aeruginosa 1750J expressing beta-lactamase IMP-15 by Etest
[4] = tested on: Pseudomonas aeruginosa; assay: Antibacterial activity against Pseudomonas aeruginosa 1750J expressing beta-lactamase IMP-15 by Etest in presence of beta-lactamase inhibitor Tazobactam

Compound | MIC [1] | MIC [2] | MIC [3] | MIC [4]
O=C(O)C1=CC[C@@H]2CC(=O)N12 [CARBAPENEM] | 8 µg/mL | > 256 µg/mL | – | –
CC(C)(O/N=C(\C(=O)N[C@@H]1C(=O)N2C(C(=O)[O-])=C(C[n+]3ccccc3)CS[C@H]12)c1csc(N)n1)C(=O)O [CEFTAZIDIME] | – | ≥ 16 µg/mL | > 256 µg/mL | –
O=C(O)c1cn(C2CC2)c2cc(N3CCNCC3)c(F)cc2c1=O [CIPROFLOXACIN] | – | – | > 32 µg/mL | –
C[C@@H](O)[C@H]1C(=O)N2C(C(=O)O)=C(S[C@@H]3CN[C@H](C(=O)Nc4cccc(C(=O)O)c4)C3)[C@H](C)[C@H]12 [ERTAPENEM] | – | – | > 32 µg/mL | –
C[C@@H](O)[C@H]1C(=O)N2C(C(=O)O)=C(SCCNC=N)C[C@H]12 [IMIPENEM ANHYDROUS] | – | ≥ 8 µg/mL | > 32 µg/mL | –
C[C@@H](O)[C@H]1C(=O)N2C(C(=O)O)=C(S[C@@H]3CN[C@H](C(=O)N(C)C)C3)[C@H](C)[C@H]12 [MEROPENEM] | – | ≥ 8 µg/mL | > 32 µg/mL | –
CCN1CCN(C(=O)N[C@@H](C(=O)N[C@@H]2C(=O)N3[C@@H]2SC(C)(C)[C@@H]3C(=O)O)c2ccccc2)C(=O)C1=O [PIPERACILLIN] | – | – | – | > 256 µg/mL
NC[C@H]1O[C@H](O[C@H]2[C@H](O)[C@@H](O[C@H]3O[C@H](CO)[C@@H](O)[C@H](N)[C@H]3O)[C@H](N)C[C@@H]2N)[C@H](N)C[C@@H]1O [TOBRAMYCIN] | – | – | > 256 µg/mL | –
GENTAMICIN | – | – | > 256 µg/mL | –
